Laboratory results taken from patent US7985889B2, “AtMIN7 mediated disease resistance to Pseudomonas syringae in Arabidopsis” (priority 2007, dated 2011).

Columns and labels:
Experiment in all cases: Brefeldin A treatment of bacteria-infiltrated detached Arabidopsis leaves: bacterial multiplication and disease symptoms
Type in all cases: in vivo
Pst DC3000 ΔCEL mutant = test system: Pst DC3000 ΔCEL mutant
Method: (§1) A standard enumeration procedure involves pathogen inoculation, using any one of described methods, supra, followed by assaying bacterial populations present within host tissues at regular intervals. The population present within the tissue was calculated based on the dilution factor divided by the amount of tissue present in each sample. Plotting log (culturable bacterial number/cm^2 leaf tissue) against time (usually in days) after pathogen inoculation produced an unfitted curve, i.e. growth curve. For a review of methods, see, Katagiri et al., in The Arabidopsis Book, Somerville, Meyerowitz, Eds. (American Society of Plant Biologists, Rockville, Md., 2002), website://dx.doi.org/10.1199/tab.0039; herein incorporated by reference.
(§2) Leaves were harvested and surface sterilized as follows: 1) whole leaves were removed from a host plant and gently mixed in a 70% ethanol solution for 1 minute. Leaves were blotted briefly on paper towels then rinsed in sterile distilled water for 1 minute, then blotted dry on paper towels. Leaf disks were excised from leaves with a 0.5 cm^2 or smaller cork borer, depending on the size of the sample leaves; 2) leaf disks from the leaves of 2 or more independent replicate plants were pooled for a single tissue sample and placed in a 1.5-mL microfuge tube with 100 μL sterile distilled water, the amount of leaf tissue per tube was recorded as leaf surface area. Three or more samples were harvested for each time point. Steps 1 and 2 were repeated for each sample; 3) Tissue samples were ground with a microfuge tube plastic pestle, by hand or by using a small hand-held electric drill. […] The number of serial dilutions necessary to get countable colonies were determined for each sample, however dilutions to 10^−7 were usually sufficient for any bacterial strain; 7) The samples were plated on the appropriate medium (e.g., Low salt Luria Bertani) supplemented with the necessary antibiotics to select for the specific inoculated bacterial strain. Plating was done in the traditional way (100 μL of a single sample was spread on a single plate) or several 10 μL aliquots of the 1:10 serial dilutions were spotted on to a single plate and allowed to dry onto the surface; and 8) Plates were placed at 30° C. for approximately 2 days with a cfu value determined for each dilution of each sample. […]
(§3) Leaves were infiltrated with 1×10^6 cfu/ml of bacteria, detached, and placed in microtiter wells with petioles immersed in the 36 μM BFA (Sigma Co.) solution. […] Bacterial populations and disease symptoms were determined on day 0 and day three.

hrcC mutant = settings: Col-0 gl1 plants treated with water or BFA
Method: as §1, §2, §3

Pst DC3000 = settings: Col-0 gl1 plants treated with water or BFA
Method: as §1, §2, §3

For `C[C@H]1CCC/C=C/[C@@H]2C[C@H](O)C[C@H]2[C@H](O)/C=C/C(=O)O1` [BFA, Brefeldin A], the “virulence (both multiplication and disease symptoms) of the Pst DC3000 ΔCEL mutant” value (Pst DC3000 ΔCEL mutant; 36 μM BFA, wild-type Col-0 gl1 leaves infiltrated with 1×10^6 cfu/ml, day three, vs water) was “significantly enhanced”, the “restoration of the virulence of the Pst DC3000 ΔCEL mutant, BFA-treated leaves compared with AtMIN7 KO plants” value (Pst DC3000 ΔCEL mutant; BFA-treated leaves) was “greater than that in the AtMIN7 KO plants” and the “multiplication or disease symptoms caused by the hrcC mutant” value (hrcC mutant) was “no significant differences”. The “multiplication or disease symptoms caused by Pst DC3000” value (Pst DC3000) was “no significant differences”.
